The assay concerns the target T1, Human AHR (Homo sapiens, UniProt P35869).
T1 construct: expressed in transfected cells
T1 sequence (P35869 11-848): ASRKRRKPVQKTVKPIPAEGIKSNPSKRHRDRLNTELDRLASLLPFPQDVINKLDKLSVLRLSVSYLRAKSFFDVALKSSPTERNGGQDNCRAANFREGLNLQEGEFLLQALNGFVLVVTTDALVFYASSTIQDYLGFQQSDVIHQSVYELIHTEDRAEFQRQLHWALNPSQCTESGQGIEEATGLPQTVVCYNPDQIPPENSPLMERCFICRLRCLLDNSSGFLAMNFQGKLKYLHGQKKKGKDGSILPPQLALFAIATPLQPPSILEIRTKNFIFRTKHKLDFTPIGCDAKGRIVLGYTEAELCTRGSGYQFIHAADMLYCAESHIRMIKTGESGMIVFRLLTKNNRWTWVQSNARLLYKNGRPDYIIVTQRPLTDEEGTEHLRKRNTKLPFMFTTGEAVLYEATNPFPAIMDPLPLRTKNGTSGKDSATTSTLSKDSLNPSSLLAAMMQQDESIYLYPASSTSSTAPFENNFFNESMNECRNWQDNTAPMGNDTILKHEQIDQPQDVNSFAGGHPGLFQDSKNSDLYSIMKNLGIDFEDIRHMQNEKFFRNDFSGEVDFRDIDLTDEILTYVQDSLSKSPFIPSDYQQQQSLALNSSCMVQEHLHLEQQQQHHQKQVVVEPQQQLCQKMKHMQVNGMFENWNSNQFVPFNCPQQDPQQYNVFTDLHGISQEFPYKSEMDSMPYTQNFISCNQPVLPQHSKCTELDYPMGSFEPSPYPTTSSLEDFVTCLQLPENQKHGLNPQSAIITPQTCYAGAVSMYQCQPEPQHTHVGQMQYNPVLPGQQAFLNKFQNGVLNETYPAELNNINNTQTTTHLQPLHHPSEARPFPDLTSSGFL
The assay is described as follows: hAHR Nuclear Translocation Assay. Type of assay: cell-based. The conditions noted are these: Jump-In T-REx HEK293 cells expressing AhR-EGFP chimera; 45 minutes incubation; ratio of EGFP fluorescent intensity in nuclear over cytosol; 20-point curve. On the procedure: Stable cell lines were established using Jump-In™ T-REx™ HEK293 Retargeting Kit (Life Technologies). Human AHR cDNA was cloned into the pJTI R4 CMV-TO EGFP vector. The EGFP was cloned to the C-terminal of AHR to form AhR-EGFP chimera. The pJTI R4 CMV-TO AhR-EGFP vector was transfected using FuGENE® HD into Jump-In™ T-REx™ HEK293 cells. Transfected cells were selected using 2.5 mg/ml G418 for 10 to 14 days, then expanded, harvested, and suspended in freeze media (FBS with 8% DMSO) at 2×10^7 cells/ml, and aliquots were stored in liquid nitrogen. […] On the assay date, compound was serially diluted (1:2) into 384-well nunc plates with DMSO using acoustic dispensing (ECHO). The dose response was a 20-point curve. Compound was resuspended in 40 μl of DMEM plus 0.1% BSA. The culture media was damped and 25 μl of DMEM plus 0.1% BSA was added, then 25 μl of compound in DMEM plus 0.1% BSA was added into cell plates. Cells were incubated with compounds at 37° C. and 5% CO2 for 45 minutes. The final DMSO concentration was 0.2%. The media was damped after 45 minutes of incubation. The cells were fixed with 40 μl of cold methanol (−20° C.) for 20 minutes. The methanol was damped and 50 μl of DPBS containing 1 μg/ml Hochst was added into the cell plates. The intensity of EGFP was quantitated by using OPERA PHENIX® or Operetta™ high content image system (Perkin Elmer) with 20× Water Objective and five field per well. The ratio of EGFP fluorescent intensity in nuclear over cytosol was analyzed using a 4-parameter nonlinear logistic equation to determine the potency of AHR agonists.
The EC50 is the concentration giving half of the maximal effect. As for `O=C(Nc1ccc(F)cn1)c1cc2cccc3c2n(c1=O)CC3` [Example 37, N-(5-Fluoro-2-pyridyl)-11-oxo-1-azatricyclo[6.3.1.04,12]dodeca-4(12),5,7,9-tetraene-10-carboxamide], the EC50 came to 0.807 nM.

With `O=C(Nc1ncccn1)c1cc2cccc3c2n(c1=O)CC3` [Example 38, 11-Oxo-N-pyrimidin-2-yl-1-azatricyclo[6.3.1.04,12]dodeca-4(12),5,7,9-tetraene-10-carboxamide], the half-maximal effective concentration (EC50) came out at 6.34 nM.

Take `Cn1c(=O)c(C(=O)Nc2ncccn2)cc2ccccc21` [Example 39, 1-Methyl-2-oxo-N-pyrimidin-2-yl-quinoline-3-carboxamide]: the EC50 came out at 3.52 nM.

In the case of `Cn1c(=O)c(C(=O)Nc2ccccc2)cc2ccc(Br)cc21` [Example 40, 7-Bromo-1-methyl-2-oxo-N-phenyl-quinoline-3-carboxamide], the 50% effective concentration (EC50) amounted to 0.831 nM.

`Cc1ccc(NC(=O)c2cc3cccc4c3n(c2=O)CC4)nc1` [Example 41, N-(5-Methyl-2-pyridyl)-11-oxo-1-azatricyclo[6.3.1.04, 12]dodeca-4(12),5,7,9-tetraene-10-carboxamide]: the half-maximal effective concentration (EC50) turned out to be 6.24 nM.

`O=C(Nc1ccccn1)c1cc2cccc3c2n(c1=O)CC3` [Example 42, 11-Oxo-N-(2-pyridyl)-1-azatricyclo[6.3.1.04,12]dodeca-4(12),5,7,9-tetraene-10-carboxamide]: the EC50 is 3.96 nM.

Regarding `COc1ccc(NC(=O)c2cc3ccc(C)cc3n(C)c2=O)cc1` [Example 44, N-(4-Methoxyphenyl)-1,7-dimethyl-2-oxo-quinoline-3-carboxamide], the EC50 came to 0.595 nM.

With `COc1ccc(NC(=O)c2cc3ccc(C4CC4)cc3n(C)c2=O)cc1` [Example 45, 7-Cyclopropyl-N-(4-methoxyphenyl)-1-methyl-2-oxo-quinoline-3-carboxamide], the EC50 came to 2.14 nM.

Regarding `CNc1ccc2cc(C(=O)Nc3ccc(OC)cc3)c(=O)n(C)c2c1` [Example 46, N-(4-Methoxyphenyl)-1-methyl-7-(methylamino)-2-oxo-quinoline-3-carboxamide], the EC50 worked out at 2.21 nM.

On to `COc1ccc(NC(=O)c2cc3ccc(N(C)C)cc3n(C)c2=O)cc1` [Example 47, 7-(Dimethylamino)-N-(4-methoxyphenyl)-1-methyl-2-oxo-quinoline-3-carboxamide], for which the EC50 came to 18 nM.

Regarding `CN(C)CCNc1cccc2c1cc(C(=O)Nc1ccccc1)c(=O)n2C` [Example 48, 5-[2-(Dimethylamino)ethylamino]-1-methyl-2-oxo-N-phenyl-quinoline-3-carboxamide], the EC50 came out at 21.3 nM.

Turning to `CN(C)CCNc1ccc2c(c1)cc(C(=O)Nc1ccccc1)c(=O)n2C` [Example 49, 6-[2-(Dimethylamino)ethylamino]-1-methyl-2-oxo-N-phenyl-quinoline-3-carboxamide], the EC50 was found to be 9 nM.

As for `CN(C)CCNc1cccc2cc(C(=O)Nc3ccccc3)c(=O)n(C)c12` [Example 50, 8-[2-(Dimethylamino)ethylamino]-1-methyl-2-oxo-N-phenyl-quinoline-3-carboxamide], the half-maximal effective concentration (EC50) amounted to 26.8 nM.

As for `CN(C)CCNc1cccc2c1cc(C(=O)Nc1ccc(F)cn1)c(=O)n2C` [Example 51, 5-[2-(Dimethylamino)ethylamino]-N-(5-fluoro-2-pyridyl)-1-methyl-2-oxo-quinoline-3-carboxamide], the EC50 is 16.4 nM.

On to `CN(C)CCNc1ccc2c(c1)cc(C(=O)Nc1ccc(F)cn1)c(=O)n2C` [Example 52, 6-[2-(Dimethylamino)ethylamino]-N-(5-fluoro-2-pyridyl)-1-methyl-2-oxo-quinoline-3-carboxamide], for which the EC50 came out at 20.3 nM.

On to `CN(C)CCNc1cccc2c1cc(C(=O)Nc1ccccn1)c(=O)n2C` [Example 53, 5-[2-(Dimethylamino)ethylamino]-1-methyl-2-oxo-N-(2-pyridyl)quinoline-3-carboxamide], for which the EC50 amounted to 16.2 nM.

Take `CN(C)CCNc1cccc2c1cc(C(=O)Nc1ncc(C(F)(F)F)cn1)c(=O)n2C` [Example 54, 5-[2-(Dimethylamino)ethylamino]-1-methyl-2-oxo-N-[5-(trifluoromethyl)pyrimidin-2-yl]quinoline-3-carboxamide]: the 50% effective concentration (EC50) amounted to 18.3 nM.

Regarding `CN(C)CCNc1ccc2c(c1)cc(C(=O)Nc1ccccn1)c(=O)n2C` [Example 55, 6-[2-(Dimethylamino)ethylamino]-1-methyl-2-oxo-N-(2-pyridyl)quinoline-3-carboxamide], the concentration for a half-maximal effect (EC50) amounted to 40.6 nM.

For the molecule `COc1ccc(NC(=O)c2cc3ccc(NCCN(C)C)cc3n(C)c2=O)cc1` [Example 56, 7-[2-(Dimethylamino)ethylamino]-N-(4-methoxyphenyl)-1-methyl-2-oxo-quinoline-3-carboxamide], the EC50 was found to be 79.2 nM.

Turning to `CN(C)CCNc1cccc2c1cc(C(=O)Nc1ncc(F)cn1)c(=O)n2C` [Example 57, 5-[2-(Dimethylamino)ethylamino]-N-(5-fluoropyrimidin-2-yl)-1-methyl-2-oxo-quinoline-3-carboxamide], the concentration for a half-maximal effect (EC50) was found to be 62.8 nM.

Turning to `Cn1c(=O)c(C(=O)Nc2ccccc2)cc2cc(OCCO)ccc21` [Example 58, 6-(2-Hydroxyethoxy)-1-methyl-2-oxo-N-phenyl-quinoline-3-carboxamide], the EC50 came out at 7.45 nM.

As for `Cn1c(=O)c(C(=O)Nc2ccccn2)cc2cc(OCCO)ccc21` [Example 59, 6-(2-Hydroxyethoxy)-1-methyl-2-oxo-N-(2-pyridyl)quinoline-3-carboxamide], the EC50 was determined as 19.2 nM.

`Cn1c(=O)c(C(=O)Nc2ccccc2)cc2c(OCCO)cccc21` [Example 60, 5-(2-Hydroxyethoxy)-1-methyl-2-oxo-N-phenyl-quinoline-3-carboxamide]: the half-maximal effective concentration (EC50) was found to be 1.4 nM.

In the case of `Cn1c(=O)c(C(=O)Nc2ccccc2)cc2ccc(OCCO)cc21` [Example 61, 7-(2-Hydroxyethoxy)-1-methyl-2-oxo-N-phenyl-quinoline-3-carboxamide], the concentration for a half-maximal effect (EC50) was determined as 16.1 nM.

As to `Cn1c(=O)c(C(=O)Nc2ccccc2)cc2cc(NCCO)ccc21` [Example 62, 6-(2-Hydroxyethylamino)-1-methyl-2-oxo-N-phenyl-quinoline-3-carboxamide], the half-maximal effective concentration (EC50) amounted to 6 nM.

`Cn1c(=O)c(C(=O)Nc2ccccc2)cc2c(NCCO)cccc21` [Example 63, 5-(2-Hydroxyethylamino)-1-methyl-2-oxo-N-phenyl-quinoline-3-carboxamide]: the EC50 came to 1.91 nM.

Take `Cn1c(=O)c(C(=O)Nc2ncc(F)s2)cc2c(NCCO)cccc21` [Example 64, N-(5-Fluorothiazol-2-yl)-5-(2-hydroxyethylamino)-1-methyl-2-oxo-quinoline-3-carboxamide]: the EC50 came to 52.9 nM.

Consider `Cn1c(=O)c(C(=O)Nc2ccccn2)cc2c(NCCO)cccc21` [Example 65, 5-(2-Hydroxyethylamino)-1-methyl-2-oxo-N-(2-pyridyl)quinoline-3-carboxamide], for which the EC50 is 6.69 nM.

Turning to `Cn1c(=O)c(C(=O)Nc2ccc(F)cn2)cc2cc(NCCO)ccc21` [Example 66, N-(5-Fluoro-2-pyridyl)-6-(2-hydroxyethylamino)-1-methyl-2-oxo-quinoline-3-carboxamide], the 50% effective concentration (EC50) came out at 53.9 nM.

Regarding `Cn1c(=O)c(C(=O)Nc2ccc(F)cn2)cc2c(NCCO)cccc21` [Example 67, N-(5-Fluoro-2-pyridyl)-5-(2-hydroxyethylamino)-1-methyl-2-oxo-quinoline-3-carboxamide], the EC50 turned out to be 1.92 nM.

Source of the values: patent US12479822B2, “AHR agonists” (Eli Lilly and Company, priority 2021, dated 2025).
